Residues, ends and D or L forms follow the SMILES beside them. *: point of attachment. MeOSuc = COC(=O)CCC(=O)*; CH2Cl = ClC*
Columns and labels:
[1] = test system: U-937 cells; experiment: Anti-Fas-induced apoptosis/necrosis in U-937 cells, morphological quantification (acridine orange/ethidium bromide); type: cell-based, Human; details: for effect on anti-Fas-induced apoptotic and necrotic cell death: anti-Fas with or without oligomycin, inhibitor added
Procedure: (§1) Human promonocytic U-937 cells in logarithmic phase were seeded at a concentration of 4×10^5/ml. Afterwards the cells were washed twice and seeded again in glucose-free RPMI-1640 medium (Beit Haemek, Israel) supplemented with 2 mM pyruvate (Beit Haemek, Israel) and 10% dialyzed FCS (Gibco, BRL) for one hour.
(§2) The rat pheochromocytoma PC-12 cell line was propagated in DMEM medium (Gibco, BRL), supplemented with 5% heat-inactivated calf serum, 10% heat-inactivated horse serum, and 2 mM L-glutamine. […]. Then the cells were washed twice and maintained in glucose-free RPMI-1640 medium (Beit Haemek, Israel), and supplemented with 2 mM pyruvate and 10% dialyzed FCS for one hour. U-937 and PC-12 cells were incubated with and without 1 μM oligomycin (Sigma) for 45 min, and cells were treated with or without 1.25 μM staurosporine (STS) (Sigma) for an additional seven hours in U-937 cells or five hours in PC-12 cells. Alternatively, cells were treated with or without 100 ng/ml anti-Fas (Upstate biotechnology, USA) for the same time period.
(§3) 200 μM elastase inhibitor III (MeOSuc-Ala-Ala-Pro-Val-CMK from Calbiochem) when added was administered 30 min before addition of the inducers. The inhibitor was dissolved in DMSO to a concentration of 100 mM. The final concentration of DMSO in the system was 0.2%, and was added to all treatments. In separate experiments, 200 μM of an elastase inhibitor (CE1037, manufactured by Cortech Inc.) was administered 30 min before addition of the inducers. The inhibitor was dissolved in PBS.
(§4) Cells undergoing morphological changes associated with apoptotic or necrotic cell death were monitored as described by McGahon et al. [Methods Cell Biol, 46: p. 153-85 (1995)]. Briefly, 1 ml of the cells was collected and centrifuged. The pellet was resuspended in a 20-fold dilution of the dye mixture (composed of 100 μg/ml acridine orange and 100 μg/ml ethidium bromide in PBS), placed on a glass slide and viewed on an inverted fluorescence microscope. A minimum of 200 cells was scored for each sample.

[2] = test system: elastase-like activity; experiment: Gelatin substrate gel electrophoresis of lysates of U-937 cells treated with KCN and elastase inhibitor; type: cell-based, Human; details: 5 mM KCN, 200 μM elastase inhibitor, 3 h
[3] = test system: PC-12 cells; experiment: KCN-induced necrosis in PC-12 cells, morphological quantification; type: cell-based, rat
Procedure: The rat pheochromocytoma PC-12 cell line was propagated in DMEM medium (Gibco, BRL), supplemented with 5% heat-inactivated calf serum, 10% heat-inactivated horse serum, and 2 mM L-glutamine. PC-12 cells in logarithmic phase were seeded at a concentration of 1.2×10^5/well in 24-well plates (Cellstar). Then the cells were washed twice and maintained in glucose-free RPMI-1640 medium (Beit Haemek, Israel), and supplemented with 2 mM pyruvate and 10% dialyzed FCS for one hour. […] Alternatively, cells were treated with or without 100 ng/ml anti-Fas (Upstate biotechnology, USA) for the same time period. U-937 and PC-12 cells cultured in complete RPMI-1640 medium were washed and seeded in glucose-free RPMI-1640 medium, as described above, and treated with or without 0.5 mM KCN (Merck, Germany) for seven hours with U-937 cells, or for five hours with PC-12 cells. […] Cells undergoing morphological changes associated with apoptotic or necrotic cell death were monitored as described by McGahon et al. [Methods Cell Biol, 46: p. […] The pellet was resuspended in a 20-fold dilution of the dye mixture (composed of 100 μg/ml acridine orange and 100 μg/ml ethidium bromide in PBS), placed on a glass slide and viewed on an inverted fluorescence microscope. A minimum of 200 cells was scored for each sample.

[4] = test system: PC-12 cells; experiment: STS-induced apoptosis in PC-12 cells, morphological quantification; type: cell-based, rat
Procedure: as §2, §3, §4

[5] = test system: PC-12 cells; experiment: STS plus oligomycin-induced necrosis in PC-12 cells, morphological quantification; type: cell-based, rat
Procedure: as §2
as §3, with “200 μM elastase inhibitor III (MeOSuc-Ala-Ala-Pro-Val-CMK from Calbiochem) when added was administered 30 min before addition of the inducers.” left out
as §4

[6] = test system: U-937 cells; experiment: STS plus oligomycin-induced cell killing in U-937 cells, trypan blue exclusion; type: cell-based, Human
Procedure: as §1, §2
200 μM elastase inhibitor III (MeOSuc-Ala-Ala-Pro-Val-CMK from Calbiochem) when added was administered 30 min before addition of the inducers. […]
At each time point, cell viability was determined by the trypan blue exclusion method (Daniel C P, Parreira A., et al. Leukemia Res. 11:191-196 (1987). Assays were performed in duplicate.

[7] = test system: elastase-like activity; experiment: Gelatin substrate gel electrophoresis of U-937 cell lysates, gel incubated with protease inhibitors; type: biochemical, Human; details: 100 μM inhibitor in gel incubation
[8] = test system: U-937 cells; details: elastase inhibitor III without KCN
[9] = 1.25 μM STS with 1 μM oligomycin, 100 μM elastase inhibitor
[10] = lysate of U-937 cells treated with 0.5 mM KCN for 3 h
[11] = lysate of U-937 cells treated with anti-Fas and oligomycin for 3 h

**Q.** CC(C)(CS(=O)(=O)c1ccc(OC(=O)C(C)(C)c2ccc(C(C)(C)C(=O)Oc3ccc(S(=O)(=O)CC(C)(C)C(=O)O)cc3)cc2)cc1)C(=O)O [CE1037] was tested. Which “effect on anti-Fas-induced apoptotic and necrotic cell death” value [1] did it give?
**A.** completely abrogated apoptotic as well as necrotic cell death

**Q.** And the “band of protease activity when KCN administered with inhibitor” value [2]?
**A.** disappeared

**Q.** And the “effect of inhibitor by itself” value ([3]; 200 μM inhibitor without KCN)?
**A.** inactive by itself

**Q.** What about the “effect on necrosis induced by KCN” value ([3]; 0.5 mM KCN, 200 μM inhibitor) of the same compound?
**A.** significantly inhibited necrosis

**Q.** And the “effect on apoptosis induced by STS” value ([4]; 1.25 μM STS, 200 μM elastase inhibitor)?
**A.** significantly inhibited apoptosis

**Q.** And the “effect of inhibitor by itself” value ([4]; 200 μM elastase inhibitor without STS)?
**A.** inactive by itself

**Q.** And the necrotic cell death [5, 9]?
**A.** 9%

**Q.** What about the “necrotic cell death shifted to apoptotic cell death” value [5, 9] of the same compound?
**A.** 39%

**Q.** What about the “effect on necrosis induced by STS” value ([5]; 1.25 μM STS with 1 μM oligomycin, 200 μM elastase inhibitor) of the same compound?
**A.** completely abrogated necrosis

**Q.** And the “effect of inhibitor by itself” value ([5]; 200 μM elastase inhibitor alone)?
**A.** inactive by itself

**Q.** What about the “effect of inhibitor by itself on cell survival” value ([6]; 48 hours, inhibitor alone) of the same compound?
**A.** slight effect by itself

**Q.** And the “effect on cell killing induced by STS and oligomycin (cell viability, trypan blue)” value ([6]; prolonged incubation of 48 hours)?
**A.** significantly inhibited cell killing

**Q.** How did the “effect of oligomycin by itself on cell death” value ([1]; 1 μM oligomycin alone) turn out when CC[C@H]1/C=C/C=C/C[C@@H](C)[C@H](O)[C@@](C)(O)C(=O)[C@@H](C)[C@H](O)[C@@H](C)C(=O)[C@@H](C)[C@H](O)[C@@H](C)/C=C/C(=O)O[C@@H]2[C@H](C)[C@H](CC1)O[C@]1(CC[C@H](C)[C@H](C[C@@H](C)O)O1)[C@H]2C [Oligomycin, oligomycin] was run?
**A.** inactive by itself

**Q.** What about the “effect of oligomycin by itself on cell death” value ([5]; oligomycin alone) of the same compound?
**A.** inactive by itself

**Q.** How did the apoptosis ([4]; 1.25 μM STS alone, compared to control) turn out when CN[C@@H]1C[C@H]2O[C@@](C)([C@@H]1OC)n1c3ccccc3c3c4c(c5c6ccccc6n2c5c31)C(=O)NC4 [STS, staurosporine] was run?
**A.** about 73%

**Q.** And the necrosis ([5]; 1.25 μM STS with 1 μM oligomycin)?
**A.** about 70%

**Q.** With Cc1ccc(S(=O)(=O)N[C@@H](Cc2ccccc2)C(=O)CCl)cc1 [TPCK] as the compound, how does the “band of protease activity in presence of inhibitor” value (from here on “band … of inhibitor”) [7, 10] read?
**A.** not

**Q.** And the “band … of inhibitor” value [7, 11]?
**A.** not

**Q.** For COC(=O)CCC(=O)N[C@@H](C)C(=O)N[C@@H](C)C(=O)N1CCC[C@H]1C(=O)N[C@H](C(=O)CCl)C(C)C [elastase inhibitor III, MeOSuc-Ala-Ala-Pro-Val-CMK] (MeOSuc-AAPV-CH2Cl), which “cell damage by inhibitor alone” value [8] is on record?
**A.** did not cause any cell damage

**Q.** With CC(C)C[C@H](NC(=O)N[C@H](C(=O)N[C@@H](CCC(N)=O)C(=O)N[C@@H](C)C=O)[C@@H]1CCNC(=N)N1)C(=O)O [elastinal] as the compound, how does the “effect on anti-Fas-induced apoptotic and necrotic cell death” value [1] read?
**A.** had no effect

**Q.** And the “band … of inhibitor” value [7, 10]?
**A.** disappeared

**Q.** What about the “band … of inhibitor” value [7, 11] of the same compound?
**A.** disappeared
